In article PMC7785020, “A unique hormonal recognition feature of the human glucagon-like peptide-2 receptor” (Cell Research, 2020):
Where a chain is given by its changes, count along the chain named.

Assays:
[1] = target: T1, GLP-2R W340^5.36A (Homo sapiens, UniProt O95838, W340A); assay: cAMP accumulation, W340^5.36A; assay type: cell-based; set-up: WT (1–553); expressed in transfected cells; HEK 293T (cAMP); details: Table S3, W340A; HEK 293T, 30 min, RT; mean ± SEM, n ≥ 3 in duplicate; read-out: cAMP Emax (% WT)
T1 sequence (O95838 1-553 W340A): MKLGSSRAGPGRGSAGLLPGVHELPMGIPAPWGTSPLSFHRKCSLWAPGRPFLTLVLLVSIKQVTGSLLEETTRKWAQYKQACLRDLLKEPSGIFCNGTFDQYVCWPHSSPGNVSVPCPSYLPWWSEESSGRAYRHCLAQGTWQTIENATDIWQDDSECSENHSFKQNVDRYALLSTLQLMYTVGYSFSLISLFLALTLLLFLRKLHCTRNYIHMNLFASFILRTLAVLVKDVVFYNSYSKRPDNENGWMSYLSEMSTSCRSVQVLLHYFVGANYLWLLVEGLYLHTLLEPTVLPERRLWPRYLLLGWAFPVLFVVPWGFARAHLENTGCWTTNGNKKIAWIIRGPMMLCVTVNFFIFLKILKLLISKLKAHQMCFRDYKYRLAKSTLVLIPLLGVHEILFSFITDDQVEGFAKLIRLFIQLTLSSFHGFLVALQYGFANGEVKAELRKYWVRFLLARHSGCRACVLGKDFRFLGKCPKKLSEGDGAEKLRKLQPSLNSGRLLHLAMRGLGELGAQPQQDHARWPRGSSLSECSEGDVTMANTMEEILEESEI
Method: (§1) HEK 293T cells were cultured in Dulbecco’s Modified Eagle’s Medium (DMEM) (Gibco, Waltham, USA) supplemented with 10% (v/v) fetal bovine serum (FBS) (Gibco) and 1% (v/v) sodium pyruvate (Gibco) at 37 °C, 5% CO2 in a humidified incubator. They were seeded onto 6-well cell culture plates and transiently transfected with different GLP-2R constructs using Lipofectamine 2000 transfection reagent (Invitrogen, Carlsbad, CA, USA). After 24 h, the transfected cells were seeded onto 384-well microtiter plates (3000 cells per well) in HBSS supplemented with 5 mM HEPES, 0.1% (w/v) bovine serum albumin (BSA) and 0.5 mM 3-isobutyl-1- methylxanthine, and stimulated with increasing concentrations of GLP-2 for 30 min at RT. Eu and Ulight were diluted by cAMP detection buffer and added to the plates separately to terminate the reaction. Plates were incubated at RT for 60 min before measuring the fluorescence intensity at 620 nm and […] by an EnVision multilabel plate reader (PerkinElmer, Boston, USA).

[2] = target: T2, GLP-2R K414^7.35A (Homo sapiens, UniProt O95838, K414A); assay: cAMP accumulation, K414^7.35A; assay type: cell-based; set-up: GLP-2R (1-553) (WT); expressed in transfected cells; host or cells: HEK 293T; details: Table S3, K414A; HEK 293T, 30 min, RT; mean ± SEM, n ≥ 3 in duplicate; read-out: cAMP Emax (% WT)
T2 sequence (O95838 1-553 K414A): T1 sequence (O95838 1-553 W340A) with A340W, K414A
Method: as §1

Q: For `CC[C@H](C)[C@H](NC(=O)[C@H](Cc1ccccc1)NC(=O)[C@H](CC(=O)O)NC(=O)[C@H](CCCNC(=N)N)NC(=O)[C@H](C)NC(=O)[C@H](C)NC(=O)[C@H](CC(C)C)NC(=O)[C@H](CC(N)=O)NC(=O)[C@H](CC(=O)O)NC(=O)[C@H](CC(C)C)NC(=O)[C@@H](NC(=O)[C@@H](NC(=O)[C@H](CC(N)=O)NC(=O)[C@H](CCSC)NC(=O)[C@H](CCC(=O)O)NC(=O)[C@H](CC(=O)O)NC(=O)[C@H](CO)NC(=O)[C@H](Cc1ccccc1)NC(=O)[C@H](CO)NC(=O)CNC(=O)[C@H](CC(=O)O)NC(=O)[C@H](C)NC(=O)[C@@H](N)Cc1c[nH]cn1)[C@@H](C)O)[C@@H](C)CC)C(=O)N[C@@H](CC(N)=O)C(=O)N[C@@H](Cc1c[nH]c2ccccc12)C(=O)N[C@@H](CC(C)C)C(=O)N[C@H](C(=O)N[C@@H](CCC(N)=O)C(=O)N[C@H](C(=O)N[C@@H](CCCCN)C(=O)N[C@H](C(=O)N[C@H](C(=O)N[C@@H](CC(=O)O)C(=O)O)[C@@H](C)O)[C@@H](C)CC)[C@@H](C)O)[C@@H](C)CC` [Human GLP-2 (1–33)], which Emax [1] is on record?
A: 107 ± 3.6%

Q: And the Emax [2]?
A: 110 ± 3.3%
